“Also recorded” adds a separate entry of the source.
Key:
[1] = system: adhesion of newborn SMCs to the recombinant 10th-type III repeat of fibronectin; assay: Adhesion of newborn SMCs to the recombinant 10th-type III repeat of fibronectin in the presence of soluble agents; format: cell-based, rat
Experimental: (§1) Microtiter plates (Falcon, Becton Dickinson, Oxnard, Calif.) were coated with the respective substrate for one (1) hour at 37° C. Nonspecific sites were blocked with 1 mg/ml BSA in PBS. […] After incubation for 60 min. at 37° C., nonadherent cells were removed with gentle washing with PBS. The number of attached cells were quantified by staining cells with 0.2% crystal violet in 20% methanol, lysing with 1% SDS, and measuring the absorbance at 550 nm (14).
(§2) It has been shown that the interaction of some cells with Tenascin-C is mediated by the RGD motif (20, 23). Therefore, an adhesion assay was used to determine the role of RGD in the interaction between Tenascin-C and SMCs. The specificity of the adhesion was determined by coating the wells with the recombinant 10th-type III repeat of fibronectin (24). In FIG. 2, 96-well plates were coated with either BSA (BSA), Tenascin-C (TN), or the recombinant 10th-type III repeat of fibronectin (10III) as described for FIG. 1. Newborn SMCs were detached, washed once in adhesion buffer and added to various concentrations of the peptide GRGDS. Cells and peptides were then preincubated for 30 min. prior to plating. The values shown are the mean±SEM of triplicate samples. Nonspecific binding to control wells coated with BSA was not subtracted from each value.
(§3) In FIG. 3, 96-well plates were coated with solutions containing intact fibronectin (FN), the recombinant 10th-type III repeat of fibronectin (FN10III), or Tenascin-C (TN). […] The number of attached cells was quantified by a colorimeter. Values shown are from a representative experiment in which triplicates are plotted as mean±SEM.
(§4) In FIG. 4, 96-well plates were coated with either Tenascin-C (TN) or the recombinant tenth type III repeat of fibronectin (10III) as described for FIG. 1. […] Values shown are from the mean±SD of triplicate samples.
To distinguish between these possibilities, the recombinant FN-L proteins were labeled with ^125I, and their ability to coat the tissue culture dishes was compared to the Fbg-L domain. […] Adhesion was measured as described above. […]

[2] = system: adhesion of newborn SMCs to Tenascin-C; assay: Adhesion of newborn SMCs to Tenascin-C-coated wells in the presence of soluble agents; format: cell-based, rat; conditions: for effect on adhesion of SMCs to Tenascin-C (summary statement): concentration not given; for inhibition of attachment of SMCs to Tenascin-C: 0.1 mg/ml GRGDS peptide, higher concentrations did not significantly alter adhesion
Experimental: as §1, §2, §3, §4
To distinguish between these possibilities, the recombinant FN-L proteins were labeled with ^125I, and their ability to coat the tissue culture dishes was compared to the Fbg-L domain. […] To determine whether the binding to tissue culture dishes had influenced the activity of the recombinant proteins, the ability of soluble Fbg-L or FN-L domains and subdomains to inhibit the interaction between intact Tenascin-C and SMCs was examined. […] In FIG. 6, 96-well plates were coated with fibronectin (FN), the recombinant tenth type III repeat of fibronectin (10III), or an intact Tenascin-C molecule (TN). Newborn SMCs were incubated for 15 min. at 37° C. with a solution of 200 μg/ml of a recombinant Fbg-L domain, the entire FN-L domain (FN-L), or the alternatively spliced A-D repeats (AD). […] Adhesion was measured as described above. Values shown are from representative experiments in which triplicates are plotted±SEM.
(§5) In FIG. 8(B), 96-well plates were coated with BSA, intact Tenascin-C (TN) or the fibrinogen-like domain (Fbg-L), and adhesion of newborn cells was measured in the presence of 1 μM synthetic peptides.

[3] = system: adhesion of SMCs to peptide VIII; assay: Adhesion of SMCs to peptide VIII-coated wells in the presence of soluble agents; format: cell-based, rat; conditions: EDTA or cations; not shown
Experimental: as §1

[4] = system: adhesion of newborn SMCs to the Fbg-L domain; assay: Adhesion of newborn SMCs to Fbg-L domain-coated wells in the presence of soluble agents; format: cell-based, rat; conditions: EDTA or cations; not shown
Experimental: as §1, §5

[5] = system: newborn aortic SMCs; assay: Adhesion assay: newborn SMCs on wells coated with the substance; format: cell-based, rat; conditions: for adhesion activity relative to the Fbg-L domain: peptide coated at 10 μg/ml on tissue culture dishes; for level of adhesion of newborn SMCs to coated substrate: wells coated with 10 μg/ml substrate
Experimental: (§6) Adult Aortic SMCs were cultured as described (12). Newborn (9-day old) aortic SMCs were obtained from Dr. Stephen, M. Schwartz, of University of Washington, and subsequently cultured (13). Briefly, rat aortic SMCs were isolated by enzymatic digestion of rat aorta (Sprague-Dawley, 2 months old, 270 g). Cells were grown in DMEM/F12 media (Gibco) supplemented with 10% fetal bovine serum (Gibco). After reaching confluence, cells (between 3rd and 6th passages) were used for adhesion studies.
as §1
To determine the concentration for the adhesion assays, microtiter plates were coated with increasing concentrations (1-100 μg/ml) of substrates, and the number of adherent cells was quantified. Adhesion of cells to Tenascin-C reached saturation levels at coating concentrations of 10 μg/ml (not shown). Therefore, all the subsequent adhesion assays were performed by coating the wells with a 10 μg/ml substrate.
The active domain of Tenascin-C was mapped using recombinant proteins corresponding to full-length Fbg-L and FN-L domains as well as FN-L subdomains 6-8, A-D, A1A2, and D. The ability of these domains, or subdomains, to interact with newborn SMCs was determined by an adhesion assay, and the results are shown in FIG. 5. In FIG. 5, a microtiter plate was coated with BSA, fibronectin (FN), intact Tenascin-C (TN), and the recombinant proteins corresponding to: the Fbg-L domain (Fbg-L), the entire FN-L repeats (AII), the constitutively spliced repeats 6-8, the alternatively spliced A-D, A1A2, and D domains. An adhesion assay was performed with newborn SMCs. Values shown are from a representative experiment in which triplicates are plotted±SEM.
The ability of the synthetic peptides to directly interact with newborn cells was determined by an adhesion assay. […] In FIG. 8, 96-well plates were coated with solutions containing BSA (C), fibronectin (FN), Tenascin-C (TN), the fibrinogen-like domain (Fbg-L), and synthetic peptides at a concentration of 10 μg/ml in PBS. An adhesion assay was performed with newborn rat SMCs. Tissue culture plates were coated with increasing concentrations of peptides from 0.1 to 10 μg/ml, and the adhesion of newborn cells was measured. Values shown are from a representative experiment in which triplicates are plotted as mean±SEM.

[6] = system: adult rat aortic SMCs; assay: Adhesion assay: adult aortic SMCs on wells coated with the substance; format: cell-based; conditions: for adhesion of adult SMCs to coated substrate: 60 min, crystal violet absorbance
Experimental: as §6, §1
Interaction between aortic SMCs and Tenascin-C was assessed by an adhesion assay. […] In FIG. 1, 96-well plates were coated with solutions containing intact fibronectin (FN), vitronectin (VN) or Tenascin-C (TN) and incubated with either adult or newborn aortic SMCs. Adhesion is measured by determining absorbance of attached cells after staining with crystal violet. Values shown are from a representative experiment in which triplicates are plotted as mean±SEM.

[7] = system: newborn rat SMCs migration on Tenascin-C substrate; assay: Migration assay (modified Boyden's chamber) on Tenascin-C substrate; format: cell-based
Experimental: (§7) Cell migration was measured by a modification of the Boyden's chamber method using microchemotaxis chambers (Neuro Probe Inc.). Polycarbonate filters were coated with 10 μg/ml of substrates overnight at 4° C. Newborn rat SMCs were suspended at a concentration of 10^5 cells/ml in serum-free DMEM supplemented with 1 mg/ml BSA. A volume of 50 μl of cell suspension was placed in the upper chamber, and 30 μl of 10% bovine calf serum in DMEM was placed in the lower chamber. In some experiments, cells were suspended in DMEM supplemented with 0.1 μM of the fibrinogen-like domain (Fbg-L) or 1 μM of peptide VIII before addition to the upper chamber. The chamber was incubated at 37° C. under 5% CO2 in air for 4 hours. The filter was removed, and the cells on the upper side of the filter were scraped off. The SMCs that had migrated to the lower side of the filter were fixed in methanol, stained with Diff-Quick staining solution (Baxter) and counted under a microscope.
(§8) To map the active domain of Tenascin-C that is involved in cell migration, the ability of the recombinant domains to block SMCs migration on a Tenascin-C substrate was determined. […] In FIG. 9, cell migration was measured by a modification of Boyden's chamber. […] Migrating cells were fixed and counted under a microscope. Nine high power fields (HPF) were counted for each triplicate. […]

[8] = system: newborn rat SMCs migration on collagen substrate; assay: Migration assay (modified Boyden's chamber) on collagen substrate; format: cell-based; conditions: Fbg-L or 1 μM peptide VIII in upper chamber
Experimental: as §7, §8

[9] = increasing cation concentration
[10] = various concentrations of cation

## [Mg+2] [Mg^2+]
[1]; [9]
  cation concentration giving maximal cell adhesion to the recombinant fibronectin fragment: 5 to 10 mM
[1]; [10]
  effect of cation on newborn SMCs adhesion to the recombinant fibronectin fragment: increased
[2]
  effect on adhesion of SMCs to Tenascin-C (summary statement): promoted
[2]; in the presence of Mg^2+
  increase potential for the interaction between newborn SMCs and Tenascin-C: three-fold
[2]; [9]
  cation concentration giving maximal cell adhesion to Tenascin-C: 5 to 10 mM
[2]; [10]
  effect of cation on newborn SMCs adhesion to Tenascin-C: increased
[3]
  effect on adhesion to peptide VIII: promoted
[4]
  effect on adhesion of SMCs to the Fbg-L domain: promoted

## GRFDS
[2]; not shown
  effect of inactive control peptide on adhesion (compared with GRGDS): no effect

## GRGDS
[1]; 0.1 mg/ml peptide, 30 min preincubation
  inhibition of attachment of newborn SMCs to the recombinant fibronectin fragment: complete inhibition
[2]
  inhibition of attachment of SMCs to Tenascin-C: approximately 30%
[2]; listed as RGD peptide
  inhibition of attachment of SMCs to Tenascin-C: 30%

## IX: 30 amino acid synthetic peptide from the C-terminal part of the Fbg-L domain of Tenascin-C, Seq. Id. No. 9 (FHWKGHEHSIQFAEMKLRPSNFRNLEGRRKRA)
[5]
  adhesion activity relative to the Fbg-L domain: 30%

## Tenascin-C: intact Tenascin-C purified from conditioned media of BHK cells overexpressing Tenascin-C
[6]; coated wells
  adhesion of adult SMCs to Tenascin-C relative to attachment to the adhesive proteins (fibronectin, vitronectin): 3-4 times lower
[7]; filters coated with 10 μg/ml substrate
  SMCs chemotaxis on coated substrate compared to BSA: stimulated
[5]; increasing coating concentrations
  coating concentration at which cell adhesion reached saturation levels: 10 µg/mL
[5]; newborn vs adult SMCs, coated wells
  adhesion of newborn SMCs to Tenascin-C relative to adult cells: 3-4 times higher
[5]
  level of adhesion of newborn SMCs to coated substrate: comparable to the attachment levels observed with fibronectin; also recorded: high compared to the fibronectin

## fibronectin
[6]
  adhesion of adult SMCs to coated substrate: avidly adhered

## peptide VIII: 30 amino acid synthetic peptide located near the C-terminal part of the Fbg-L domain of Tenascin-C, Seq. Id. No. 8 (WYRNCHRVNLMGRYGDNNHSQGVNWFHWKG)
[8]
  effect on migration of SMCs on collagen substrate: did not interfere
[7]; 0.1 μM Fbg-L or 1 μM peptide VIII in upper chamber, 4 hours
  inhibition of SMCs chemotaxis on Tenascin-C substrate: ~70%
[2]
  effect on adhesion of SMCs to Tenascin-C (summary statement): completely blocked
[5]
  adhesion activity relative to the Fbg-L domain: 80%
  level of adhesion of newborn SMCs to coated substrate: strongly promoting newborn cell adhesion

B1: vitronectin: vitronectin matrix protein (protein, UniProt P04004 20-478, looked up)
Vitronectin: DQESCKGRCTEGFNVDKKCQCDELCSYYQSCCTDYTAECKPQVTRGDVFTMPEDEYTVYDDGEEKNNATVHEQVGGPSLTSDLQAQSKGNPEQTPVLKPEEEAPAPEVGASKPEGIDSRPETLHPGRPQPPAEEELCSGKPFDAFTDLKNGSLFAFRGQYCYELDEKAVRPGYPKLIRDVWGIEGPIDAAFTRINCQGKTYLFKGSQYWRFEDGVLDPDYPRNISDGFDGIPDNVDAALALPAHSYSGRERVYFFKGKQYWEYQFQHQPSQEECEGSSLSAVFEHFAMMQRDSWEDIFELLFWGRTSAGTRQPQFISRDWHGVPGQVDAAMAGRIYISGMAPRPSLAKKQRFRHRNRKGYRSQRGHSRGRNQNSRRPSRATWLSLFSSEESNLGANNYDDYRMDWLVPATCEPIQSVFFFSGDKYYRVNLRTRRVDTVDPPYPRSIAQYWLGCPAPGHL
[6]
  adhesion of adult SMCs to coated substrate: avidly adhered

Source: patent US6818618B1, “Inhibition of smooth muscle cell migration by Tenascin-C peptides” (Cedars-Sinai Medical Center, priority 1998, dated 2004)
